The text below walks through data of patent US5068233A, “Synergistic combination of azelastine and theophylline or azelastine and α-mimetics” (Asta Pharma Aktiengesellschaft, priority 1987, dated 1991).

Counter-ions that a name gives are not always drawn.

For this test, the system named is isolated guinea pig ileum (histamine spasm). Kind of test: histamine spasm test in isolated guinea pig ileum (Magnus), % inhibition of histamine spasm. On the set-up: antihistaminic activity (mean value), starting value / increase of antihistaminic activity (mean value): concentration or dose not given beside the values. The protocol:
These trials were conducted in association with the histamine spasm test in isolated guinea pig ileum. Here, for example, the azelastine dosage (hydrochloride) is maintained constant and the dosage of theophylline or β-mimetic (for example reproterol) is changed and in each case intestinal spasm inhibition is determined as a % of uninhibited histamine spasm (Method of determining synergism according to Magnus).
Guinea pigs of both sexes having a mean weight of 400-600 g are stunned by a blow on the neck and exsanguinated. The lower part of the small intestine above the bottom 10 cm before the transition to the large intestine is dissected, flushed with cold Tyrode's solution and incubated in a refrigerator for 1 hour. 3-4 cm long sections are then cut and suspended in the immersion baths (Tyrode's solution^1) 37° C., carbogen gassing^2) under isotonic conditions, a tension of 2 g being applied. Following an adjustment time of 30 minutes the contraction in response to a standard spasmogen concentration of histamine (2×10^-7 mol/liter) is determined. […] The effects of the individual components and their combination are compared with one another.
1 Tyrode's solution: standardized, glucose-containing nutrient solution that has the same osmotic pressure as blood
2 Carbogen: gaseous mixture of 95% oxygen and 5% carbon dioxide.

For the compound `CN1CCCC(n2nc(Cc3ccc(Cl)cc3)c3ccccc3c2=O)CC1` (centres unmarked) [azelastine], the “increase of antihistaminic activity (mean value)” value (from here on “increase”) (azelastine activity increased in the combination, partner not given) is recorded as 26%. For the setting “azelastine, mean value before increase”, the “antihistaminic activity (mean value), starting value” is 36%.

On to `Cn1c(=O)c2c(ncn2CCCNCC(O)c2cc(O)cc(O)c2)n(C)c1=O` (stereo not drawn) [reproterol, 7-{3[(β,3,5-trihydroxyphenethyl)-amino]propyl}-theophylline], for which the “antihistaminic activity (mean value), starting value” (reproterol, mean value before addition of azelastine) came out at 26%. The “increase” value (reproterol, on addition of azelastine) is 38%.

Regarding `Cn1c(=O)c2[nH]cnc2n(C)c1=O` [Theophylline], the “% inhibition (histamine 2 × 10^-10 mol/ml)” value (“% inhibition” for short) is given as 9.0 ± 12.8% (Table 1, Theophylline 10 μg/ml alone, group *, N = 8); 25.0 ± 15.1% (Table 1, Theophylline 20 μg/ml alone, group **, N = 4); 39.6 ± 26.9% (Table 1, Theophylline 40 μg/ml alone, group ***, N = 8); 20.6 ± 15.5% (Table 1, Theophylline 60 μg/ml alone, group ****, N = 8). For the setting “theophylline, mean value before addition of azelastine”, the “antihistaminic activity (mean value), starting value” came out at 24%. Moreover, under “theophylline, upon addition of azelastine”, the “increase” value is given as 38%.

As to `CN1CCCC(n2nc(Cc3ccc(Cl)cc3)c3ccccc3c2=O)CC1` (centres unmarked) [Azelastine.HCl], the “% inhibition” value (Table 1, Azelastine.HCl 0.001 μg/ml alone, group ****, N = 8) is reported as 46.3 ± 34.6%; the “% inhibition” value (Table 1, Azelastine.HCl 0.001 μg/ml alone, group ***, N = 8) turned out to be 9.4 ± 12.4%; the “% inhibition” value (Table 1, Azelastine.HCl 0.001 μg/ml alone, group **, N = 4) worked out at 49.3 ± 1.9%; the “% inhibition” value (Table 1, Azelastine.HCl 0.001 μg/ml alone, group *, N = 8) is recorded as 38.9 ± 19.9%; the “% inhibition” value (Table 2, Azelastine.HCl 0.001 μg/ml alone, group ***, N = 8) was determined as 45.9 ± 21.1%; the “% inhibition” value (Table 2, Azelastine.HCl 0.001 μg/ml alone, group **, N = 8) is 26.6 ± 15.1%. Besides, the “% inhibition” value (Table 2, Azelastine.HCl 0.001 μg/ml alone, group *, N = 8) is given as 35.1 ± 25.7%.

For `Cn1c(=O)c2c(ncn2CCCNCC(O)c2cc(O)cc(O)c2)n(C)c1=O` (centres unmarked) [Reproterol.HCl], the “% inhibition” value amounted to 14.5 ± 16.6% (Table 2, Reproterol.HCl 0.02 μg/ml alone, group *, N = 8); 14.5 ± 18.1% (Table 2, Reproterol.HCl 0.04 μg/ml alone, group **, N = 8); 48.5 ± 21.3% (Table 2, Reproterol.HCl 0.06 μg/ml alone, group ***, N = 8).
